Measured values as given in the NIST ThermoML archive (doi:10.1021/je050498q).
± gives the expanded uncertainty stated by the source.

Key:
[1] = refractive index (Na D-line) (dimensionless); wn = mass fraction of the nth substance listed; conditions: 101 kPa, Liquid, w2 = 0
[2] = wn = mass fraction of the nth substance listed; conditions: 101 kPa, Liquid, w2 = 0

refractive index ([1]; 298.15 K): 1.3325 ± 0.0007
refractive index ([1]; 308.15 K): 1.3313 ± 0.0007
refractive index ([1]; 318.15 K): 1.33 ± 0.0007
viscosity ([2]; 298.15 K): 0.89 ± 0.023 mPa·s
viscosity ([2]; 308.15 K): 0.729 ± 0.019 mPa·s
viscosity ([2]; 318.15 K): 0.6 ± 0.017 mPa·s
Compound: O [water] + O=C([O-])[C@H](O)[C@@H](O)C(=O)[O-].[Na+].[Na+]
